The text below walks through data of US9650664B2, “Use of photocleavable compounds” (FEMTONICS KFT, priority 2011, dated 2017).

Data set [1] relates to hippocampal pyramide cell. Nature of the data set: two-photon stimulation of a hippocampal pyramide cell (Example 20). The class given is cell-based, Wistar rats. Particulars: for Calcium tranziens by two-photon stimulation / somatically recorded EPSP by two-photon stimulation: 2.5 mM, 740 nm, with L-glutamic acid dehydrogenase and NADP; for toxicity: pyramid cell response to 500 ms -100, 0 and 125 pA current injection, waveform after stimulation. On the procedure: (§1) Acute hippocampus slices were prepared from 16-20 day old Wistar rats using isoflurane anaesthesia followed by swift decapitation. The process was in accordance with the Hungarian Act of Animal Care and Experimentation (1998. XXVIII, section 243). Coronal (300 μm) brain slices were cut with a vibratome and stored at room temperature in artificial cerebrospinal fluid (ACSF). The composition of the ACSF solution is described above.
(§2) Hippocampus neurons in CA1 stratum radiatum near the border of the stratum lacunosum-moleculare were visualized using 900 nm infrared oblique illumination. Current-clamp recordings were made at 32° C. (MultiClamp 700B, Digidata 1440; Molecular Devices, Sunnyvale, Calif., USA) with glass electrodes (6-9 MΩ) filled with (in mM): 125 K-gluconate, 20 KCl, 10 HEPES, 10 Di-Tris-salt phosphocreatine, 0.3 Na-GTP, 4 Mg-ATP, 10 NaCl, 0.06 Oregon Green BAPTA-1 (OGB-1) and biocytin. Cells with a resting membrane potential more negative than −50 mV were accepted. The recorded cells were classified as nonpyramidal cells according to their electrophysiological properties.
a.) After achieving the whole-cell mode and filling the interneurons with 60 μM OGB-1, the bath solution was exchanged to ACSF containing MNI-Glu-TFA [2.5 mM, Tocris]. Photolysis of MNI-Glu-TFA was performed with 710-830 nm ultrafast, pulsed laser light (Mai Tai HP Deep See, SpectraPhysics, Mountain View, Calif.). The intensity of the uncaging laser beam was controlled with an electro-optical modulator (Model 350-80 LA, Conoptics). Dispersion compensation was set to have maximal response at the depth of uncaging (50-80 μm from surface). The uncaging laser beam was coupled into the imaging optical pathway with a dichroic mirror (custom laser combiner, z750bcm; Chroma Technology Corp, Rockingham, USA). Chromatic aberration was compensated at the focal plane. Radial and axial beam (imaging and photochemical stimulating) alignment errors were held below 100 nm and 300 nm, respectively. Imaging was interleaved with two-photon glutamate uncaging periods, when galvanometers jumped to the maximum 15-25 selected locations (<60 μs jump time) and returned back to the 3D or 2D trajectory thereafter. The position of uncaging sites was finely adjusted according to background images taken. Photolysis of caged glutamate was performed in “clustered” (0.8±0.1 μm distance between inputs) patterns along the dendrite. The single spot uncaging time and laser intensity was set to reproduce uEPSPs and mEPSPs induced by the local application of high osmolar external solution at similar distances from the soma (amplitude of unitary gluEPSP: 0.56±0.09 mV, mEPSPs: 0.58±0.1, uEPSP: 0.55±0.12; exposure time 0.2-0.5 ms/input). Small drifts of the sample (on the order of 0.1-0.2 μm) during the mapping were compensated manually according to regularly taken background images. b.) After the test the perfusion rate was set to 10 ml/min in order to increase the exchange rate of ACSF containing 2.5 mM DNI-Glu*TFA used in the subsequent test. The test was repeated with the same setting of the equipment on the same dendrite section.
The experiment was carried out according to Example 16 with the difference that the cell was filled with calcium sensitive dye (Fluo4) and anatomical dye (ALEXA 594). The experiments were carried out in accordance of the Example 16 with the following differences: after patch clamp the perfusion solution exchange to ACSF containing 2.5 mM iDMPO-DNI-Glutamic acid*2TFA and, or ACSF containing 2.5 mM iDMBO-DNI-Glutamic acid*2TFA, 0.1-0.2 units/ml of L-glutamic acid dehydrogenase and β-Nicotinamide adenine dinucleotide phosphate for the second measurement. The β-Nicotinamide adenine dinucleotide phosphate was kept in a concentration of 50-100 μM during the experiments. All chemical agents (cage compound, dehidrogenase, NADP apply into the bath). During the experiments the evaporation loss of dH2O was continuously refilled. […]

Data set [2] in a line: weight increase on storage (hygroscopicity). Conditions: 25° C. 50% relative humidity, after 72 hours storage. The class given is physicochemical. On the procedure: We measured the weight increase of MNI-Glubase and its salts with hydrochloric and trifluoroacetic acid at 25° C. 50% relative humidity.
A short description of data set [3]: spontaneous hydrolysis in ACSF. It counts as physicochemical. On the procedure: […] The solution was sampled at the beginning of the storage and 48 hours later and 4-methoxy-5,7-dinitro-2,3-dihydro-1H-indole was identified from the hydrolysis products by using LCMS method. The compound was identified by the peak of its molecule weight at 240. The sample taken after 48 hours was measured with HPLC equipment. Without correction 46.7% of DNI-Glu*TFA hydrolysed.

The subject of another data set is hippocampus neurons. Conditions: according to WO2008/094922; cited from earlier work.
For data set [4], the system named is Hippocampus neurons in CA1 stratum radiatum. The data set is described as follows: two-photon uncaging on acute hippocampus slices with neutralizing agents (EPSP, Ca2+ transient). The class given is cell-based, Wistar rats. Particulars: 2.5 mM. On the procedure: as §1, §2
Two-photon imaging started 15-20 minutes after attaining the whole-cell configuration on a two-photon laser-scanning system (Femto2D, Femtonics Ltd., Budapest) using femtosecond lasers (830-850 nm), Mai Tai HP, SpectraPhysics, Mountain View, Calif.). […]

The conditions of data set [5]: according to WO2008/094922; cited from earlier work.
Data set [6] concerns Hippocampus neurons in CA1 stratum radiatum. Nature of the data set: spontaneous activity of the cell (EPSP frequency), voltage-clamp test. It counts as cell-based, Wistar rats. On the procedure:
as §1, §2
A.) Using the test setup of the two-photon excitation process according to Example 16 spontaneous potential changes of the observed cell was measured.
At the beginning of the experiment the control level of potential changes (EPSP) was measured in the absence of DNI-Glu. The measured fluctuation is shown in FIG. 1/A. Following the test DNI-Glu (2.5 mM) was added to the measuring cell. The measured fluctuation is shown in FIG. 1/B. Then 0.1-0.2 unit/ml L-glutamic acid dehydrogenase enzyme and 200 μM NADP (β-Nicotinamide adenine dinucleotide phosphate) were added.
B.) The experiment described in point A.) was repeated 8 times using other cells in each case. The column diagram can be seen on the left side. The average of the control level is shown in column a.). The average of the change due to the caged compound is shown in column b.), while the average level after the addition of the enzyme in column c.).

For “di-trifluoroacetic acid salt of 2-amino-1-(4′-dimethylamino-isopropoxy-5′,7′-dinitro-2′,3′-dihydro-indol-1′-yl)-5-oxo-pentanoic [iDMPO-DNI-Glu TFA]”, in data set [1], the “Calcium tranziens by two-photon stimulation” value is on record as “could evoke”, the “somatically recorded EPSP by two-photon stimulation” value is reported as “could evoke” and the toxicity entry is recorded as “not detected”.
Consider `COc1ccc([N+](=O)[O-])c2c1CCN2C(=O)CC[C@H](N)C(=O)O.Cl` [MNI-Glu HCl salt], for which the weight increase in data set [2] is 13.6%.
The compound `COc1c([N+](=O)[O-])cc([N+](=O)[O-])c2c1CCN2C(=O)CCC(N)C(=O)O.O=C(O)C(F)(F)F` (stereo not drawn) [DNI-Glu*TFA, trifluoroacetic acid salt of 2-amino-5-(4′-methoxy-5′,7′-dinitro-2′,3′-dihydro-indol-1′-yl)-5-oxo-pentanoic acid] returned a hydrolysed in data set [3] (0.06 mg/ml in ACSF, stored at 32° C., 48 hours, HPLC, without correction) of 46.7%. In addition, the “speed of the formation of the glutamic acid” value in data set [3] (in 12 ml of ACSF) came out at 1 µmol/min.
As for “di-trifluoroacetic acid salt of 2-amino-1-(4′-dimethylamino-isobutoxy-5′,7′-dinitro-2′,3′-dihydro-indol-1′-yl)-5-oxo-pentanoic [iDMBO-DNI-Glu TFA]”, in data set [1], the “Calcium tranziens by two-photon stimulation” value is “the same as Panel (D)”, the “somatically recorded EPSP by two-photon stimulation” value is “the same as Panel (D)” and the toxicity result is given as “not detected”.
Take `COc1ccc([N+](=O)[O-])c2c1CCN2C(=O)CCC(N)C(=O)O.O=C(O)C(F)(F)F` (stereo not drawn) [MNI-Glu trifluoroacetic acid salt]: the weight increase in data set [2] was found to be 4%.
Take `COc1c([N+](=O)[O-])cc([N+](=O)[O-])c2c1CCN2C(=O)CCC(N)C(=O)O` (stereo not drawn) [DNI-Glu, 2-amino-5-(4′-methoxy-5′,7′-dinitro-2′,3′-dihydro-indol-1-yl)-5-oxo-pentanoic acid]: in the data set on hippocampus neurons, the “electrical signals in two-photon irradiation experiments” value was “no electrical signals”. The “excitatory postsynaptic potential (EPSP) resulted by irradiation, compared with MNI-Glu” value in data set [4] (FIG. 2/A) is reported as “significantly higher”. In addition, in data set [4] (FIG. 2/B), the “Ca2+ transient signal as a response of the irradiation, compared with MNI-Glu” value is recorded as “significantly higher”. In addition, the “dissolution in physiological solutions” value in data set [5] is reported as “so bad”. Moreover, the “frequency of EPSP / spontaneous responses after addition of glutamate dehydrogenase enzyme” value in data set [6] (DNI-Glu 2.5 mM, then L-glutamic acid dehydrogenase and NADP) was “restored to the control level”. The “EPSP Frequency MEAN” value in data set [6] (DNI-Glu 2.5 mM, enzyme = 0.1-0.2 unit/ml L-glutamic acid dehydrogenase and 200 μM NADP, repeated 8 times, other cells) is listed as 3.87 Hz. Besides, the “frequency of EPSP on addition to the perfusion solution” value in data set [6] (DNI-Glu added, no enzyme) was “increased”.
Turning to `COc1ccc([N+](=O)[O-])c2c1CCN2C(=O)CCC(N)C(=O)O` (stereo not drawn) [MNI-Glubase, 2-amino-5-(4-methoxy-7-nitro-2,3-dihydro-indol-1-yl)-5-oxo-pentanoic acid], in data set [2], the weight increase is on record as 20%.
